# Reference: patent US8598177B2, “Imidazopyridazines as PAR1 inhibitors, production thereof, and use as medicaments” (Sanofi, priority 2008, dated 2013)
# Structures can show the parent of a compound that is named as a salt.
# Biological target: T1, PAR1 (Homo sapiens, UniProt P25116)
# T1 construct: endogenous in cells; host or cells: washed platelets prepared from platelet-rich plasma of healthy volunteer donors
# T1 sequence (P25116 22-425): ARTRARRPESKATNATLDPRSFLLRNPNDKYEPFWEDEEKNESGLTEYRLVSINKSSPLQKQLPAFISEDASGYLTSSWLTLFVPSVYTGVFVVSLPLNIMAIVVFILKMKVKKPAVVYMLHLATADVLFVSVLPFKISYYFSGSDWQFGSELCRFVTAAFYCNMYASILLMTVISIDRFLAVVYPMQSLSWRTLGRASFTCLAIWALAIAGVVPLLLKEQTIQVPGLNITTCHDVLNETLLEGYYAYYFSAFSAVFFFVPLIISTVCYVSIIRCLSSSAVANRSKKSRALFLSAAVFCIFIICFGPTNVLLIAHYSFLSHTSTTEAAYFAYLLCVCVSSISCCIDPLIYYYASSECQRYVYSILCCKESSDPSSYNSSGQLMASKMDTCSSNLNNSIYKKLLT
# Assay: Inhibition of PAR1-mediated platelet aggregation induced by TRAP
# Assay type: cell-based
# Details: washed platelets from healthy volunteer donors, TRAP (70-100 μM solution) as agonist, 96-well format, AUC at 650 nm, 37° C., 20 minutes
# Protocol: PAR1 Determination Method: Inhibition of PAR1-Mediated Platelet Aggregation
# The pharmacological testing of the substances took place in platelet aggregation induced by TRAP (thrombin receptor-activating peptide) in 96-well format. For this purpose, blood was taken from healthy volunteer donors in 20 ml syringes containing 2 ml of 3.13% sodium citrate solution. After centrifugation at 150×g for 20 minutes, the platelet-rich plasma (PRP) was separated off and mixed with 1 μl of PGE1 solution (500 μg/ml in ethanol)/ml of PRP. Incubation at room temperature for 5 minutes was followed by centrifugation at 120×g for 15 minutes to remove the leukocytes. The leukocyte-free PRP was transferred in 5 ml portions into 15 ml PP tubes and centrifuged at 360×g for 15 minutes in order to pellet the platelets. The plasma was then decanted off and the platelet sediment from 5 ml of PRP was resuspended in 1 ml of Tyrode's (120 mM NaCl, 2.6 mM KCl, 12 mM NaHCO3, 0.39 mM NaH2PO4×H2O, 10 mM HEPES, 0.35% BSA, 5.5 mM glucose, pH 7.4) and adjusted with Tyrode's to a platelet count of 3×10^5/microliter (4). 13 ml of this cell suspension were then mixed with 866 μL of 10 mM CaCl2 solution, and 120 μL thereof were pipetted into each well of a 96-well plate containing 15 μL of the substance to be tested. After incubation at room temperature in the dark for 30 minutes, 15 μL of a TRAP solution (70-100 μM) were added as agonist, and kinetics were recorded at 650 nm in a SpectraMax 340 at 37° C. for 20 minutes while shaking. The areas under the curves of negative control (Tyrode's/DMSO) and positive control (15 μl of agonist/DMSO) were calculated and the difference was fixed as the 100% value. The substances to be tested were pipetted as serial dilutions in duplicate determination, the AUC was likewise determined for each substance concentration, and the % inhibition of the AUC compared with the control was calculated. On the basis of the % inhibition, the IC50 was calculated by nonlinear regression analysis according to the 4-parameter equation.
row,IC50 [nM],Structure (SMILES)
1,5,"CCOc1cc2cn(CC(=O)c3cc(NC(C)=O)cc(S(F)(F)(F)(F)F)c3)c(=N)n2nc1OCC [Example 1, trifluoroacetic acid salt]"
2,180,"COc1nn2c(=N)n(CC(=O)c3cc(N4CCOCC4)c(OC)c(C(C)(C)C)c3)cc2cc1OCC(F)(F)F [Example 4, 1-(3-tert-Butyl-4-methoxy-5-morpholin-4-ylphenyl)-2-[7-imino-2-methoxy-3-(2,2,2-trifluoroethoxy)imidazo[1,5-b]pyridazin-6-yl]ethanone as trifluoroacetic acid salt]"
3,4,"CCOc1cc2cn(CC(=O)c3cc(N4CCOCC4)c(OC)c(C(C)(C)C)c3)c(=N)n2nc1OCC [Example 3, 1-(3-tert-Butyl-4-methoxy-5-morpholin-4-ylphenyl)-2-(2,3-diethoxy-7-iminoimidazo-[1,5-b]pyridazin-6-yl)ethanone as trifluoroacetic acid salt]"
